Reference: patent publication US9273003B2, “Methods of treating lymphoma and rheumatoid arthritis with cyclopentyl (2S)-cyclohexyl[({6-[3-(hydroxyamino)-3-oxopropyl]pyridin-3-yl}methyl)amino]acetate” (GlaxoSmithKline Intellectual Property Development Limited, priority 2006, dated 2016)

How the values were obtained:
[1] = target: histone deacetylase activity (HeLa nuclear extract); experiment: HDAC fluorescent activity assay (Fluor de Lys, Biomol); assay type: biochemical; conditions: IC50 allocated to ranges, read-out: HDAC activity
Protocol: The ability of compounds to inhibit histone deacetylase activities was measured using the commercially available HDAC fluorescent activity assay from Biomol. In brief, the Fluor de Lys™ substrate, a lysine with an epsilon-amino acetylation, is incubated with the source of histone deacetylase activity (HeLa nuclear extract) in the presence or absence of inhibitor. Deacetylation of the substrate sensitises the substrate to Fluor de Lys™ developer, which generates a fluorophore. Thus, incubation of the substrate with a source of HDAC activity results in an increase in signal that is diminished in the presence of an HDAC inhibitor.
Data are expressed as a percentage of the control, measured in the absence of inhibitor, with background signal being subtracted from all samples, as follows: % activity=[(S^i−B)/(S^o−B)]×100 where S^i is the signal in the presence of substrate, enzyme and inhibitor, S^o is the signal in the presence of substrate, enzyme and the vehicle in which the inhibitor is dissolved, and B is the background signal measured in the absence of enzyme.
IC50 values were determined by non-linear regression analysis, after fitting the results of eight data points to the equation for sigmoidal dose response with variable slope (% activity against log concentration of Compound), using Graphpad Prism software.
Histone deacetylase activity from crude nuclear extract derived from HeLa cells was used for screening. The preparation, purchased from 4C (Seneffe, Belgium), was prepared from HeLa cells harvested whilst in exponential growth phase. The nuclear extract was prepared according to the methodology described by J. D. Dignam, Nucl. Acid. Res., 1983, 11, 1475-1489, snap frozen in liquid nitrogen and stored at −80° C. The final buffer composition was 20 mM Hepes, 100 mM KCl, 0.2 mM EDTA, 0.5 mM DTT, 0.2 mM PMSF and 20% (v/v) glycerol.

[2] = tested on: U937 cells; experiment: U937 cell inhibition assay (WST-1 cell viability); assay type: cell-based; conditions: Homo sapiens, U-937; U937 cells; IC50 allocated to ranges; read-out: U937 activity
Protocol: (§1) Cancer cell lines (U937 and HUT) growing in log phase were harvested and seeded at 1000-2000 cells/well (100 μl final volume) into 96-well tissue culture plates. Following 24 h of growth cells were treated with Compound. Plates were then re-incubated for a further 72-96 h before a WST-1 cell viability assay was conducted according to the suppliers (Roche Applied Science) instructions.
(§2) Data were expressed as a percentage inhibition of the control, measured in the absence of inhibitor, as follows: % inhibition=100−[(S^i/S^o)×100] where S^i is the signal in the presence of inhibitor and S^o is the signal in the presence of DMSO.
(§3) Dose response curves were generated from 8 concentrations (top final concentration 10 μM, with 3-fold dilutions), using 6 replicates.
(§4) IC50 values were determined by non-linear regression analysis, after fitting the results to the equation for sigmoidal dose response with variable slope (% activity against log concentration of Compound), using Graphpad Prism software.

[3] = tested on: HUT78 cells; experiment: HUT cell inhibition assay (WST-1 cell viability); assay type: cell-based; conditions: Homo sapiens; HUT78 cells; IC50 allocated to ranges; read-out: HUT activity
Protocol: as §1, §2, §3, §4

Row | Structure (SMILES) | IC50 [1] | IC50 [2] | IC50 [3]
1 | CC(C)C[C@H](NCc1ccc(CCC(=O)NO)cc1)C(=O)O[C@@H]1C[C@H](C)CC[C@H]1C(C)C [Example 45, (1R,2S,5R)-2-Isopropyl-5-methylcyclohexyl N-{4-[3-(hydroxyamino)-3-oxopropyl]benzyl}-L-leucinate] | > 1000 nM | < 330 nM | 331 to 3300 nM
2 | CC(C)[C@@H]1CC[C@@H](C)C[C@H]1OC(=O)[C@@H](NCc1ccc(CCC(=O)NO)cc1)C1CCCCC1 [Example 46, (1R,2S,5R)-2-Isopropyl-5-methylcyclohexyl (2S)-cyclohexyl({4-[3-(hydroxyamino)-3-oxopropyl]benzyl}amino)acetate] | > 1000 nM | > 3300 nM | > 3300 nM
3 | CC(C)[C@H](NCc1ccc(CCC(=O)NO)cc1)C(=O)OC(C)(C)C [Example 47, tert-Butyl N-{4-[3-(hydroxyamino)-3-oxopropyl]benzyl}-L-valinate] | > 1000 nM | > 3300 nM | 331 to 3300 nM
4 | CC(C)[C@H]1CC[C@H](C)C[C@@H]1OC(=O)[C@@H](NCc1ccc(CCC(=O)NO)cc1)C1CCCCC1 [Example 48, (1S,2R,5S)-2-Isopropyl-5-methylcyclohexyl (2S)-cyclohexyl({4-[3-(hydroxyamino)-3-oxopropyl]benzyl}amino)acetate] | > 1000 nM | 331 to 3300 nM | 331 to 3300 nM
5 | O=C(CCc1cccc(CN[C@H](C(=O)OC2CCCC2)C2CCCCC2)c1)NO [Example 50, Cyclopentyl (2S)-cyclohexyl({3-[3-(hydroxyamino)-3-oxopropyl]benzyl}amino)acetate] | 101 to 1000 nM | 331 to 3300 nM | 331 to 3300 nM
6 | O=C(CCc1cccc(CN[C@H](C(=O)OC2CCCC2)c2ccccc2)c1)NO [Example 51, Cyclopentyl (2S)-({3-[3-(hydroxyamino)-3-oxopropyl]benzyl}amino)(phenyl)acetate] | > 1000 nM | > 3300 nM | > 3300 nM
7 | CC(C)C[C@H](NCc1cccc(CCC(=O)NO)c1)C(=O)OC1CCCC1 [Example 52, Cyclopentyl N-{3-[3-(hydroxyamino)-3-oxopropyl]benzyl}-L-leucinate] | > 1000 nM | 331 to 3300 nM | > 3300 nM
8 | O=C(/C=C/c1ccc(CN[C@H](C(=O)OC2CCCC2)C2CCCCC2)cn1)NO [Example 53, Cyclopentyl (2S)-cyclohexyl[({6-[(1E)-3-(hydroxyamino)-3-oxoprop-1-en-1-yl]pyridin-3-yl}methyl)amino]acetate] | < 100 nM | < 330 nM | < 330 nM
9 | CC(C)C[C@H](NCc1ccc(/C=C/C(=O)NO)nc1)C(=O)OC1CCCC1 [Example 54, Cyclopentyl N-({6-[(1E)-3-(hydroxyamino)-3-oxoprop-1-en-1-yl]pyridin-3-yl}methyl)-L-leucinate] | < 100 nM | < 330 nM | 331 to 3300 nM
10 | CC(C)(C)OC(=O)[C@@H](NCc1ccc(/C=C/C(=O)NO)nc1)C1CCCCC1 [Example 59, tert-Butyl (2S)-cyclohexyl[({6-[(1E)-3-(hydroxyamino)-3-oxoprop-1-en-1-yl]pyridin-3-yl}methyl)amino]acetate] | < 100 nM | < 330 nM | < 330 nM
11 | O=C(/C=C/c1ccc(CN[C@H](C(=O)OC2CCCC2)c2ccccc2)cn1)NO [Example 60, Cyclopentyl (2S)-[({6-[(1E)-3-(hydroxyamino)-3-oxoprop-1-en-1-yl]pyridin-3-yl}methyl)amino](phenyl)acetate] | < 100 nM | < 330 nM | < 330 nM
12 | CC(C)(C)OC(=O)[C@@H](NCc1ccc(/C=C/C(=O)NO)nc1)c1ccccc1 [Example 61, tert-Butyl (2S)-[({6-[(1E)-3-(hydroxyamino)-3-oxoprop-1-en-1-yl]pyridin-3-yl}methyl)amino](phenyl)acetate] | < 100 nM | < 330 nM | < 330 nM
13 | O=C(CCc1ccc(CN[C@H](C(=O)OC2CCCC2)C2CCCCC2)cn1)NO [Example 62, Cyclopentyl (2S)-cyclohexyl[({6-[3-(hydroxyamino)-3-oxopropyl]pyridin-3-yl}methyl)amino]acetate] | < 100 nM | < 330 nM | 331 to 3300 nM
14 | CC(C)(C)OC(=O)[C@@H](NCc1ccc(CCC(=O)NO)nc1)c1ccccc1 [Example 64, tert-Butyl (2S)-[({6-[3-(hydroxyamino)-3-oxopropyl]pyridin-3-yl}methyl)amino](phenyl)acetate] | 101 to 1000 nM | 331 to 3300 nM | 331 to 3300 nM
15 | O=C(CCc1ccc(CN[C@H](C(=O)OC2CCCC2)c2ccccc2)cn1)NO [Example 65, Cyclopentyl (2S)-[({6-[3-(hydroxyamino)-3-oxopropyl]pyridin-3-yl}methyl)amino](phenyl)acetate] | 101 to 1000 nM | < 330 nM | 331 to 3300 nM
16 | CC(C)C[C@H](NCc1ccc(CCC(=O)NO)nc1)C(=O)OC(C)(C)C [Example 66, tert-Butyl N-({6-[3-(hydroxyamino)-3-oxopropyl]pyridin-3-yl}methyl)-L-leucinate] | < 100 nM | < 330 nM | 331 to 3300 nM
17 | CC(C)C[C@H](NCc1ccc(CCC(=O)NO)nc1)C(=O)O[C@@H]1C[C@H](C)CC[C@H]1C(C)C [Example 67, (1R,2S,5R)-2-Isopropyl-5-methylcyclohexyl N-({6-[3-(hydroxyamino)-3-oxopropyl]pyridin-3-yl}methyl)-L-leucinate] | 101 to 1000 nM | < 330 nM | 331 to 3300 nM
18 | O=C(/C=C/c1ccc(CN[C@H](C(=O)OC2CCCC2)C2CCCCC2)nc1)NO [Example 68, Cyclopentyl (2S)-cyclohexyl[({5-[(1E)-3-(hydroxyamino)-3-oxoprop-1-en-1-yl]pyridin-2-yl}methyl)amino]acetate] | < 100 nM | < 330 nM | 331 to 3300 nM
19 | CC(C)C[C@H](NCc1ccc(/C=C/C(=O)NO)cn1)C(=O)OC(C)(C)C [Example 69, tert-Butyl N-({5-[(1E)-3-(hydroxyamino)-3-oxoprop-1-en-1-yl]pyridin-2-yl}methyl)-L-leucinate] | 101 to 1000 nM | 331 to 3300 nM | 331 to 3300 nM
20 | O=C(CCc1ccc(CN[C@H](C(=O)OC2CCCC2)C2CCCCC2)nc1)NO [Example 70, Cyclopentyl (2S)-cyclohexyl[({5-[3-(hydroxyamino)-3-oxopropyl]pyridin-2-yl}methyl)amino]acetate] | 101 to 1000 nM | < 330 nM | 331 to 3300 nM
21 | CC(C)C[C@H](NCc1ccc(CCC(=O)NO)cn1)C(=O)OC(C)(C)C [Example 71, tert-Butyl N-({5-[3-(hydroxyamino)-3-oxopropyl]pyridin-2-yl}methyl)-L-leucinate] | > 1000 nM | 331 to 3300 nM | > 3300 nM
22 | O=C(/C=C/c1ccc(CN[C@H](CO)C(=O)OC2CCCC2)cc1)NO [Example 72, Cyclopentyl N-{4-[(1E)-3-(hydroxyamino)-3-oxoprop-1-en-1-yl]benzyl}-D-serinate] | 101 to 1000 nM | 331 to 3300 nM | 331 to 3300 nM
23 | CC(C)C[C@H](NCc1ccc(CNCc2ccc(/C=C/C(=O)NO)cc2)cc1)C(=O)OC(C)(C)C [Example 76, tert-Butyl N-{4-[({4-[(1E)-3-(hydroxyamino)-3-oxoprop-1-en-1-yl]benzyl}amino)methyl]benzyl}-L-leucinate] | < 100 nM | < 330 nM | < 330 nM
24 | O=C(CCc1ccc(CNCc2ccc(CN[C@H](C(=O)OC3CCCC3)C3CCCCC3)cc2)cc1)NO [Example 77, Cyclopentyl (2S)-cyclohexyl({4-[({4-[3-(hydroxyamino)-3-oxopropyl]benzyl}amino)methyl]benzyl}amino)acetate] | 101 to 1000 nM | < 330 nM | 331 to 3300 nM
25 | CC(C)C[C@H](NCc1ccc(CNCc2ccc(CCC(=O)NO)cc2)cc1)C(=O)OC(C)(C)C [Example 78, tert-Butyl N-{4-[({4-[3-(hydroxyamino)-3-oxopropyl]benzyl}amino)methyl]benzyl}-L-leucinate] | 101 to 1000 nM | < 330 nM | 331 to 3300 nM
26 | CC(N[C@H](C(=O)OC1CCCC1)C1CCCCC1)c1ccc(/C=C/C(=O)NO)cc1 (stereo partly drawn) [Example 84] | > 1000 nM | > 3300 nM | > 3300 nM
